Data set [1] addresses human α3β3γ2 receptors (Homo sapiens (Human), UniProt P18507+P34903). As to the kind of experiment: 3H-flunitrazepam competition binding, human α3β3γ2 GABAA receptor. The note with it: HEK293 cell membranes, 1 nM 3H-flunitrazepam; read-out: Ki α3. The gist of the method:
(§1)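 Radioligand displacement of 1 nM 3H-flunitrazepam from membranes of HEK293 lines stably expressing the human subtypes, 1 h at room temperature, compound in 8-point 4-fold series. Bound label on GF/C filters counted by scintillation; Ki derived from fitted IC50, with flumazenil as low control.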

Data set [2] is described as follows: Rat pharmacokinetic experiment. Type of data set: in vivo. The note with it: rat, po, 3 mg/kg. On the procedure: The maximum plasma concentration (Cmax) in the rat pharmacokinetic experiment was used to evaluate the absorption of the compounds in rat in vivo. The experimental compound was dissolved and then orally administered by gavage (p.o.) to male SD rats. The rats were fasted overnight before drug administration, and blood was collected via venipuncture at 0.25, 0.5, 1, 2, 4, and 7 hours post dose. Approximately 100 μL blood was collected for each sample; at the same time, the whole brain was taken and homogenized with 3 times the amount of PBS for analysis. The […] method was used to determine drug concentrations in plasma and brain tissue, and the proportion of compounds entering the brain (B/P) was calculated based on the AUC of the compound. Pharmacokinetic parameters were calculated using Phoenix WinNonlin 7.0. The administration vehicle was 5% CMC-Na aqueous solution.

Data set [3] addresses human α1β3γ2 receptors (Homo sapiens (Human), UniProt P14867+P18507). Description: 3H-flunitrazepam competition binding, human α1β3γ2 GABAA receptor. The note with it: HEK293 cell membranes, 1 nM 3H-flunitrazepam; read-out: Ki α1. The gist of the method:
as §1

Data set [4] deals with human MDR1 P-gp. Description: MDCKII-MDR1 permeability. Type of data set: in vitro ADME, canine. The note with it: dog. As to the method: Brain permeability of compounds was assessed by measuring compound efflux in Madin-Darby canine kidney-II (MDCKII) cells transfected with the human MDR1 gene (Drug metabolism and disposition, 2008, 36(2), 268-275).
The active transport mechanism was mediated by uptake and efflux transporters expressed on MDCKII-MDR1 cells, primarily by overexpressed human MDR1 P-gp.
MDCKII-MDR1 cells were seeded on the polycarbonate microporous membrane of Transwell™ at a density of (0.85 to 5.0)×10^6/cm^2, and used for experiments when the cells reached complete confluence (3 to 5 d). […] At the beginning and end of the experiment, samples were collected from the transport solution side. After incubation for a certain period of time (1.5 hours), samples were also collected from the buffer side, and the concentration was determined by HPLC-MS/MS or scintillation counting.

Each structure is given as a SMILES string. pKi: −log10 of the molar value.

What is called pKi is the Ki on a negative log10 scale, so that one unit is a factor of ten. The Cmax is the maximum level reached in the sampled fluid or tissue. The Papp A→B is the apparent permeability from the apical to the basolateral side of a cell layer.

Take `Cc1nnn(-c2ccc(C(F)F)cc2)c1COc1ccc(N2CC(=O)NC(C)C2)nn1` (stereo not drawn) [Example 6, 4-(6-((1-(4-(Difluoromethyl)phenyl)-4-methyl-1H-1,2,3-triazol-5-yl)methoxy)pyridazin-3-yl)-6-methylpiperazin-2-one]: the pKi is 7.85 in data set [1] and 7.22 in data set [3]. For the same compound, in data set [2] (male, SD, brain / plasma, read-out: B/P (proportion of compounds entering the brain)), the Kp came to 0.0015. In data set [2] (plasma, male SD rats), this compound had a maximum concentration (Cmax) of 1510 ng/mL. For the same compound, the efflux ratio at 1.5 h in data set [4] (MDCK-MDR1, pH 7.4, Papp (B-A)/Papp (A-B), read-out: Efflux ratio (ER)) came out at 7.52. The same compound had a Papp A→B at 1.5 h in data set [4] (MDCK-MDR1, pH 7.4, 37° C., 1.5 hours) of 4.16 ×10⁻⁶ cm/s.

These data come from US20250136581A1, “SUBSTITUTED TRIAZOLE DERIVATIVE, PREPARATION METHOD THEREFOR, PHARMACEUTICAL COMPOSITION THEREOF, AND USE THEREOF” (SHANGHAI SIMR BIOTECHNOLOGY CO., LTD., priority 2021, published 2025).
